Experimental data taken from patent publication US9649313B2, “Use of ITK inhibitors for the treatment of cancer” (The University of North Carolina at Chapel Hill, priority 2012, dated 2017).
pIC50: −log10 of the molar value.

Tests used:
Experiment in all cases: cell-free kinase assay
Format in all cases: biochemical
MAPKAPK2 = target: T1, MAPKAPK2 (Homo sapiens, UniProt P49137); settings: single inhibitor concentration
T1 construct: purchased Carna Biosciences
Source text: (§1) We investigated the potency and selectivity of BI 10N against 56 kinases using a cell-free assay (Table 8A).
(§2) The selectivity of this inhibitor was investigated by testing the potency of the inhibitor at two concentrations with 53 kinases by Carna Biosciences (MA) (Table 2).

AKT1 = target: T2, AKT1 (Homo sapiens, UniProt P31749); settings: single inhibitor concentration
T2 construct: purchased Carna Biosciences
Source text: as §1, §2

CDK2/CycA2 = target: T3, CDK2/CycA2 (Homo sapiens, UniProt P24941); settings: single inhibitor concentration
T3 construct: purchased Carna Biosciences
Source text: as §1, §2

PAK2 = target: T4, PAK2 (Homo sapiens, UniProt Q13177); settings: single inhibitor concentration
T4 construct: purchased Carna Biosciences
Source text: as §1, §2

JNK2 = target: T5, JNK2 (Homo sapiens, UniProt P45984); settings: single inhibitor concentration
T5 construct: purchased Carna Biosciences
Source text: as §1, §2

TSSK1 = target: T6, TSSK1 (Homo sapiens, UniProt Q9BXA7)
T6 construct: purchased Carna Biosciences
Source text: as §1, §2

YES = target: T7, YES (Homo sapiens, UniProt P07947); settings: for pIC50: YES
T7 construct: purchased Carna Biosciences
Source text: as §1, §2

FGR = target: T8, FGR (Homo sapiens, UniProt P09769); settings: ATP concentration at approximately the Km for ATP
T8 construct: purchased Carna Biosciences
Source text: as §1, §2

LYNb = target: T9, LYNb (Homo sapiens, UniProt P07948); settings: ATP concentration at approximately the Km for ATP
T9 construct: purchased Carna Biosciences
Source text: as §1, §2

PDK1 = target: T10, PDK1 (Homo sapiens, UniProt O15530); settings: single inhibitor concentration
T10 construct: purchased Carna Biosciences
Source text: as §1, §2

CSK = target: T11, CSK (Homo sapiens, UniProt P41240); settings: single inhibitor concentration
T11 construct: purchased Carna Biosciences
Source text: as §1, §2

CaMK4 = target: T12, CaMK4 (Homo sapiens, UniProt Q16566); settings: single inhibitor concentration
T12 construct: purchased Carna Biosciences
Source text: as §1, §2

HGK = target: T13, HGK (Homo sapiens, UniProt O95819)
T13 construct: purchased Carna Biosciences
Source text: as §1, §2

ROCK1 = target: T14, ROCK1 (Homo sapiens, UniProt Q13464); settings: single inhibitor concentration
T14 construct: purchased Carna Biosciences
Source text: as §1, §2

SYK = target: T15, SYK (Homo sapiens, UniProt P43405); settings: single inhibitor concentration
T15 construct: purchased Carna Biosciences
Source text: as §1, §2

AMPKα1/β1/γ1 = target: T16, AMPKα1/β1/γ1 (Homo sapiens, UniProt Q13131); settings: single inhibitor concentration
T16 construct: purchased Carna Biosciences
Source text: as §1, §2

SRC = target: T17, SRC (Homo sapiens, UniProt P12931)
T17 construct: purchased Carna Biosciences
Source text: as §1, §2

PKACα = target: T18, PKACα (Homo sapiens, UniProt P17612); settings: single inhibitor concentration
T18 construct: purchased Carna Biosciences
Source text: as §1, §2

TRKB = target: T19, TRKB (Homo sapiens, UniProt Q16620)
T19 construct: purchased Carna Biosciences
Source text: as §1, §2

IRAK4 = target: T20, IRAK4 (Homo sapiens, UniProt Q9NWZ3)
T20 construct: purchased Carna Biosciences
Source text: as §1, §2

DAPK1 = target: T21, DAPK1 (Homo sapiens, UniProt P53355); settings: single inhibitor concentration
T21 construct: purchased Carna Biosciences
Source text: as §1, §2

Erk2 = target: T22, Erk2 (Homo sapiens, UniProt P28482); settings: single inhibitor concentration
T22 construct: purchased Carna Biosciences
Source text: as §1, §2

CK1ε = target: T23, CK1ε (Homo sapiens, UniProt P49674); settings: single inhibitor concentration
T23 construct: purchased Carna Biosciences
Source text: as §1, §2

GSK3β = target: T24, GSK3β (Homo sapiens, UniProt P49841); settings: single inhibitor concentration
T24 construct: purchased Carna Biosciences
Source text: as §1, §2

PIM1 = target: T25, PIM1 (Homo sapiens, UniProt P11309); settings: single inhibitor concentration
T25 construct: purchased Carna Biosciences
Source text: as §1, §2

TYRO3 = target: T26, TYRO3 (Homo sapiens, UniProt Q06418); settings: single inhibitor concentration
T26 construct: purchased Carna Biosciences
Source text: as §1, §2

JAK3 = target: T27, JAK3 (Homo sapiens, UniProt P52333); settings: single inhibitor concentration
T27 construct: purchased Carna Biosciences
Source text: as §1, §2

NEK2 = target: T28, NEK2 (Homo sapiens, UniProt P51955); settings: single inhibitor concentration
T28 construct: purchased Carna Biosciences
Source text: as §1, §2

EPHB4 = target: T29, EPHB4 (Homo sapiens, UniProt P54760); settings: single inhibitor concentration
T29 construct: purchased Carna Biosciences
Source text: as §1, §2

LYNa = target: T30, LYNa (Homo sapiens, UniProt P07948); settings: ATP concentration at approximately the Km for ATP
T30 construct: purchased Carna Biosciences
Source text: as §1, §2

DYRK1B = target: T31, DYRK1B (Homo sapiens, UniProt Q9Y463); settings: single inhibitor concentration
T31 construct: purchased Carna Biosciences
Source text: as §1, §2

BLK = target: T32, BLK (Homo sapiens, UniProt P51451); settings: ATP concentration at approximately the Km for ATP
T32 construct: purchased Carna Biosciences
Source text: as §1, §2

SGK = target: T33, SGK (Homo sapiens, UniProt O00141); settings: single inhibitor concentration
T33 construct: purchased Carna Biosciences
Source text: as §1, §2

MET = target: T34, MET (Homo sapiens, UniProt P08581); settings: single inhibitor concentration
T34 construct: purchased Carna Biosciences
Source text: as §1, §2

PYK2 = target: T35, PYK2 (Homo sapiens, UniProt Q14289); settings: single inhibitor concentration
T35 construct: purchased Carna Biosciences
Source text: as §1, §2

CHK1 = target: T36, CHK1 (Homo sapiens, UniProt O14757); settings: single inhibitor concentration
T36 construct: purchased Carna Biosciences
Source text: as §1, §2

KDR = target: T37, KDR (Homo sapiens, UniProt P35968); settings: single inhibitor concentration
T37 construct: purchased Carna Biosciences
Source text: as §1, §2

PBK = target: T38, PBK (Homo sapiens, UniProt Q96KB5); settings: single inhibitor concentration
T38 construct: purchased Carna Biosciences
Source text: as §1, §2

PDGFRα = target: T39, PDGFRα (Homo sapiens, UniProt P16234)
T39 construct: purchased Carna Biosciences
Source text: as §1, §2

AurA = target: T40, AurA (Homo sapiens, UniProt O14965); settings: single inhibitor concentration
T40 construct: purchased Carna Biosciences
Source text: as §1, §2

ZAP70 = target: T41, ZAP70 (Homo sapiens, UniProt P43403); settings: ATP concentration at approximately the Km for ATP
T41 construct: purchased Carna Biosciences
Source text: as §1, §2

T7 sequence (P07947 whole entry): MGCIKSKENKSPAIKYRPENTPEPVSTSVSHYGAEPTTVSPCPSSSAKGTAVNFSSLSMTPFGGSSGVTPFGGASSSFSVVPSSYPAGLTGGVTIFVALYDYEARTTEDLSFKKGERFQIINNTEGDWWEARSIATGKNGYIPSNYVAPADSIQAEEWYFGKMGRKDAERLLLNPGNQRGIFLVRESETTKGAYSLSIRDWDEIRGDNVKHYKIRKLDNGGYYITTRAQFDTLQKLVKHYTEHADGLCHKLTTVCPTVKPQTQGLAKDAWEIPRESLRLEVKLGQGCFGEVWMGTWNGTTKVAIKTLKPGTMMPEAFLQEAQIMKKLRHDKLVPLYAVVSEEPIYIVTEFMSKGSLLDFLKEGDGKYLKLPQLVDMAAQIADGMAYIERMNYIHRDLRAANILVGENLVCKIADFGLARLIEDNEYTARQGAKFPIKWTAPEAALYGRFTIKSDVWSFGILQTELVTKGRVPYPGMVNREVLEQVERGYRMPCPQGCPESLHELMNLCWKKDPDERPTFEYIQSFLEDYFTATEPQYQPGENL
T39 sequence (P16234 24-1089): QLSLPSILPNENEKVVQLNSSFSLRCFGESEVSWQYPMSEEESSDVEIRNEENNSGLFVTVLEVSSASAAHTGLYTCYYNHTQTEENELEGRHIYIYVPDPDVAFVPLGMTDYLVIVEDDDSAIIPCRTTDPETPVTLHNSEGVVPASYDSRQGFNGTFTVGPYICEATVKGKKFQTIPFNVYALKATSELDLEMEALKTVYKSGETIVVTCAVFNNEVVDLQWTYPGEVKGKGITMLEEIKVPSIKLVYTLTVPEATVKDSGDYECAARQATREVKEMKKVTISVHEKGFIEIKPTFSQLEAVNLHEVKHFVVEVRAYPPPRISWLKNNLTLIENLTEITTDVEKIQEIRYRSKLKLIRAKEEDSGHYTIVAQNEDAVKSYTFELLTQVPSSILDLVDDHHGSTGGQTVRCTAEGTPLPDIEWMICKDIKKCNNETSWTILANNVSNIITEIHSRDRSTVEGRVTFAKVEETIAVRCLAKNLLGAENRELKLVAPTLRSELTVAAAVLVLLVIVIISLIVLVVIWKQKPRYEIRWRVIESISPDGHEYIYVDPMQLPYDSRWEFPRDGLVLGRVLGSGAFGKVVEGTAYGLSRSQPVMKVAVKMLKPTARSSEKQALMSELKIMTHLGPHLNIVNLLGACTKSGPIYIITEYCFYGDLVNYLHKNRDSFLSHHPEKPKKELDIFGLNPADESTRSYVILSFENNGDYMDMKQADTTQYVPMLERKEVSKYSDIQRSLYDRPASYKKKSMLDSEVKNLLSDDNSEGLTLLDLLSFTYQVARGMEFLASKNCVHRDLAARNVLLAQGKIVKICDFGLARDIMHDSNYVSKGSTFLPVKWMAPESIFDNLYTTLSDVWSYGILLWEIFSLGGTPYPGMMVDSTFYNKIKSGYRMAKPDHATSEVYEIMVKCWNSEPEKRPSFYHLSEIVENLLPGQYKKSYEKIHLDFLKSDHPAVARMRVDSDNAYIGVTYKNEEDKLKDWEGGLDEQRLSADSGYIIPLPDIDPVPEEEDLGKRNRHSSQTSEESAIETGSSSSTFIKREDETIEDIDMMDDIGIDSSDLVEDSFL
T13 sequence (O95819 whole entry): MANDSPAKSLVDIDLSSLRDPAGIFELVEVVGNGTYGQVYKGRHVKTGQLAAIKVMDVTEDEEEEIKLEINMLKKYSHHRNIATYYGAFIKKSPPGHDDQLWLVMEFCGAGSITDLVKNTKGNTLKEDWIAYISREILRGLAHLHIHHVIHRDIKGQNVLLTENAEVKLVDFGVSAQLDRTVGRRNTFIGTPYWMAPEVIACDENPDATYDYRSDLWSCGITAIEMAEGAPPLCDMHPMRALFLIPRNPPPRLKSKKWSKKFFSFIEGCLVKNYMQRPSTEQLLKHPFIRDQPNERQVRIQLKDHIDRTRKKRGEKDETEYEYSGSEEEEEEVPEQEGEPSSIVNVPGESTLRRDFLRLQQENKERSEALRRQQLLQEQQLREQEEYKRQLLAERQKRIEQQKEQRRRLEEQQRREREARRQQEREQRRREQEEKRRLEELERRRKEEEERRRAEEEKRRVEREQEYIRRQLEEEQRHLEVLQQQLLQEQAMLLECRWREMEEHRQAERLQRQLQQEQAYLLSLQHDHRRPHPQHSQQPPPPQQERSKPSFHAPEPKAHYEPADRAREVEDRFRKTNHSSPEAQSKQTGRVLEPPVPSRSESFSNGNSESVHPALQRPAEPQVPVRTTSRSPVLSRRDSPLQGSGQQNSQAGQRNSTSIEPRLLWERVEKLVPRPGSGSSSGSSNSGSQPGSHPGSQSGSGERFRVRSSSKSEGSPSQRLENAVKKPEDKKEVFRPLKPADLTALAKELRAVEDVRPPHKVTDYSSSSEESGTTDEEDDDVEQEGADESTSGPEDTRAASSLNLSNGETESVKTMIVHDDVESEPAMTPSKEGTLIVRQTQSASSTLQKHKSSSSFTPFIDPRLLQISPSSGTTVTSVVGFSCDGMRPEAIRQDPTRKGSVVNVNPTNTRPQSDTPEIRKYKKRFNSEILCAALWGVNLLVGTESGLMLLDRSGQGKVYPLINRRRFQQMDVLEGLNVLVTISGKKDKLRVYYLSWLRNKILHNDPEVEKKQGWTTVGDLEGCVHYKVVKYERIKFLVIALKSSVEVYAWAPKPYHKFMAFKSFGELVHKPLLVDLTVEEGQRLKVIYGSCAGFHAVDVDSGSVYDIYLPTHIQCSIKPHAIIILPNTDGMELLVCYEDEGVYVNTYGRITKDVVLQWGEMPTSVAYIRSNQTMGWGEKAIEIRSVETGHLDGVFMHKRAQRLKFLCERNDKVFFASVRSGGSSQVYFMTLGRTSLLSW
T20 sequence (Q9NWZ3 whole entry): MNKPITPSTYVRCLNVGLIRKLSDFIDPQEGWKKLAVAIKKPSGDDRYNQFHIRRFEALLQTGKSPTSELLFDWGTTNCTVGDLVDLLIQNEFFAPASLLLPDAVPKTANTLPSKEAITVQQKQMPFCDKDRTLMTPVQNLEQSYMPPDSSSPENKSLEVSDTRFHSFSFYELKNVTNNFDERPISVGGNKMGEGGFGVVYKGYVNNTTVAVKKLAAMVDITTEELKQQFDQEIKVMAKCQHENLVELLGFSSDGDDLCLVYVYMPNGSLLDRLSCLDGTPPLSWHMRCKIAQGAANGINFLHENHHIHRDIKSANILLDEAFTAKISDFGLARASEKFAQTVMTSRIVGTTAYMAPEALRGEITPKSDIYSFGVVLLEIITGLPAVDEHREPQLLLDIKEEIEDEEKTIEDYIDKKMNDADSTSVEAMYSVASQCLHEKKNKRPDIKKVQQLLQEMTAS
T17 sequence (P12931 whole entry): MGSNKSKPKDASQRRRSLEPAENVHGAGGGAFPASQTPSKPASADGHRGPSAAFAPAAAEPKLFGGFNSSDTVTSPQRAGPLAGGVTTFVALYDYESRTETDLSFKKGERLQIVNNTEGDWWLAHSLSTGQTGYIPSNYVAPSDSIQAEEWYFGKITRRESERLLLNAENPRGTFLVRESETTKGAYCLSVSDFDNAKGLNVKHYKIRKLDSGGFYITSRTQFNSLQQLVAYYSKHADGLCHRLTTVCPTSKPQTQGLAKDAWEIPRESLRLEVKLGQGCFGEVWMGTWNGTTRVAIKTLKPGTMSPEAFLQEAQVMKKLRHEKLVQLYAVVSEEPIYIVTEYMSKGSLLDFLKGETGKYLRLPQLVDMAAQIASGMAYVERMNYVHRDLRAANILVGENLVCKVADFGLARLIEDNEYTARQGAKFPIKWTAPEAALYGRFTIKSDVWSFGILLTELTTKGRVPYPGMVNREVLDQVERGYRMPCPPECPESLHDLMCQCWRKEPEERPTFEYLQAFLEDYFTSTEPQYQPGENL
T6 sequence (Q9BXA7 whole entry): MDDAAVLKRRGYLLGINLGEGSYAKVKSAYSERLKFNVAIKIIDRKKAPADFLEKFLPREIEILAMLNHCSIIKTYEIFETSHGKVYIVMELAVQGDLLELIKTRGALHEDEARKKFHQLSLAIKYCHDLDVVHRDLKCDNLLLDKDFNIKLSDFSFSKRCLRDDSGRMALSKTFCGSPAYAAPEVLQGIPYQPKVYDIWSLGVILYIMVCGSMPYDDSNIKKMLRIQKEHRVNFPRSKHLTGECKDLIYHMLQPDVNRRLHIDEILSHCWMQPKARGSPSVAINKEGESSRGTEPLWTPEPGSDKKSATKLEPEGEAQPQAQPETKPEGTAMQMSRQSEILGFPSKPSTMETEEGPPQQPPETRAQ
T19 sequence (Q16620 32-822): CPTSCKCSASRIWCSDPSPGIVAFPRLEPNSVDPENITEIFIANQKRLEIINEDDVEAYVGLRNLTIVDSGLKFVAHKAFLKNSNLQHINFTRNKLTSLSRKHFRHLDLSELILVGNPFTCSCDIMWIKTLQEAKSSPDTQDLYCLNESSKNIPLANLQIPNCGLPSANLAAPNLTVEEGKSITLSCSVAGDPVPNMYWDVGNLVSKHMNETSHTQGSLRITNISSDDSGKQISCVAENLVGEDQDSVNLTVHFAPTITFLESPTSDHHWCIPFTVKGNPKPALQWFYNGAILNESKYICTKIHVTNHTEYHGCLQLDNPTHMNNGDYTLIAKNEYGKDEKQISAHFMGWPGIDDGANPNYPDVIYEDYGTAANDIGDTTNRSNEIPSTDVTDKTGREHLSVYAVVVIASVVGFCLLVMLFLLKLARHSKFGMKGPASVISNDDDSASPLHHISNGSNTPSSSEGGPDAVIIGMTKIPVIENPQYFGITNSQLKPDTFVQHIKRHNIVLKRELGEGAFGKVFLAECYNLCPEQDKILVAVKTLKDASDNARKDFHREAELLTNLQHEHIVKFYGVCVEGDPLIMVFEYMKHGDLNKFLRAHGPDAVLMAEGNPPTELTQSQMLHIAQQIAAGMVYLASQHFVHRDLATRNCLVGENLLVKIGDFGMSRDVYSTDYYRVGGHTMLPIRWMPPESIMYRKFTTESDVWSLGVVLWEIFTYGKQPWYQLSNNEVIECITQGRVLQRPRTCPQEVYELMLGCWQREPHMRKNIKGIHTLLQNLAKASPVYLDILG

inhibition at 0.2 µM (MAPKAPK2): -5.2% | inhibition at 0.2 µM (AKT1): -2.2% | inhibition at 0.2 µM (CDK2/CycA2): 72.3% | inhibition at 0.2 µM (PAK2): 4.5% | inhibition at 0.2 µM (JNK2): -0.1% | pIC50 (TSSK1; Table 2, by Carna Biosciences): 7.54 | inhibition at 0.2 µM (TSSK1; single inhibitor concentration): 88.9% | selectivity for ITK over YES (YES): about 10 fold | pIC50 (YES; 1 mM ATP, Km ATP 13 μM): 8.23 | pIC50 (YES; ATP concentration at approximately the Km for ATP): 9.00 | pIC50 (YES; Table 2, by Carna Biosciences): 9.00 | pIC50 (FGR): 8.54 | pIC50 (LYNb): 7.37 | inhibition at 0.2 µM (PDK1): 1.5% | inhibition at 0.2 µM (CSK): 32.4% | inhibition at 0.2 µM (CaMK4): -4.3% | pIC50 (HGK; Table 2, by Carna Biosciences): 7.92 | inhibition at 0.2 µM (HGK; single inhibitor concentration): 100% | inhibition at 0.2 µM (ROCK1): 33% | inhibition at 0.2 µM (SYK): 40.6% | inhibition at 0.2 µM (AMPKα1/β1/γ1): 15.3% | pIC50 (SRC; Table 2, by Carna Biosciences): 8.42 | inhibition at 0.2 µM (SRC; single inhibitor concentration): 99.9% | inhibition at 0.2 µM (PKACα): 2.5% | pIC50 (TRKB): 8.89 | selectivity for ITK over TRKB (TRKB): about 10 fold | pIC50 (IRAK4; Table 2, by Carna Biosciences): 8.50 | inhibition at 0.2 µM (IRAK4; single inhibitor concentration): 105% | inhibition at 0.2 µM (DAPK1): 5.5% | inhibition at 0.2 µM (Erk2): -1.5% | inhibition at 0.2 µM (CK1ε): 76.2% | inhibition at 0.2 µM (GSK3β): 31.5% | inhibition at 0.2 µM (PIM1): 10.4% | inhibition at 0.2 µM (TYRO3): 35.6% | inhibition at 0.2 µM (JAK3): 75% | inhibition at 0.2 µM (NEK2): 0.3% | inhibition at 0.2 µM (EPHB4): 52.1% | pIC50 (LYNa): 7.44 | inhibition at 0.2 µM (DYRK1B): 79.6% | pIC50 (BLK): 7.28 | inhibition at 0.2 µM (SGK): 1.4% | inhibition at 0.2 µM (MET): 4.1% | inhibition at 0.2 µM (PYK2): 35.1% | inhibition at 0.2 µM (CHK1): 60.3% | inhibition at 0.2 µM (KDR): 79.3% | inhibition at 0.2 µM (PBK): 1.7% | pIC50 (PDGFRα; Table 2, by Carna Biosciences): 8.00 | inhibition at 0.2 µM (PDGFRα; single inhibitor concentration): 101% | inhibition at 0.2 µM (AurA): 15.9% | pIC50 (ZAP70): 5.15
SMILES: CC(C)C(C)CNCc1ccc2c(c1)[nH]/c(=N\C(=O)c1ccc(C3=CN=NC3)s1)n2CC(C)(C)O (centres unmarked) [BI 10N]
